Data published in patent US8709419B2, “Combination therapy” (Hoffmann-La Roche, Inc., priority 2010, dated 2014).
Structures can show the parent of a compound that is named as a salt. Where two headings read alike, the source gives them in different places.

Tests used:
[1] = tested on: Human HT-29 Cell Xenografts; assay: HT-29 xenograft mice, Example 5 (Compound I / cetuximab, treatment day 12-34): tumor growth inhibition, regression, survival; type: in vivo; conditions: for 50% Treatment Days: median survival
Method: (§1) Differences between groups were considered to be significant when the probability value (p) was ≦0.05.
(§2) For survival assessment, the percent of increased life space (ILS) was calculated as: 100×[(median survival day of treated group−median survival day of control group)/median survival day of control group]. Median survival was determined utilizing Kaplan Meier survival analysis. […] Differences between groups were considered significant when the probability value (p) was ≦0.05.
(§3) Tumor measurements were taken once or twice per week. All animals were individually followed throughout the experiment.

[2] = Toxicity in Example 6 study: body weight change, mortality, gross observation
[3] = Solubility in water, amorphous versus crystalline form; type: physicochemical; conditions: amorphous form as compared with the crystalline form
[4] = tested on: Human HT-29 Cell Xenografts; conditions: for tumor regression (partial or complete): Ex.6: Compound I 25 mg/kg bid, cetuximab 40 mg/kg 2x/wk, irinotecan HCl 40 mg/kg q4d x5 monotherapies, cetuximab + irinotecan combination
[5] = Toxicity in Example 5 study: body weight change, mortality, gross observation
[6] = tested on: Human HT-29 Cell Xenografts; assay: HT-29 xenograft mice, Example 4 (Compound I / erlotinib HCl, treatment day 12-29): tumor growth inhibition, regression, survival; type: in vivo; conditions: for Complete Regression / Partial Regression: animals of 10 per group; for 50% Treatment Days: median survival
Method: as §1, §2, §3

[7] = Toxicity in Example 4 study: body weight change, mortality, gross observation
Method: Erlotinib hydrochloride at 100 mg/kg qd was included as a monotherapy arm for comparison.

[8] = erlotinib hydrochloride 100 mg/kg qd in combination; Higgins et al., Anticancer Drugs 15:503-12 (2004); cited from earlier work
[9] = Ex.5: Compound I 25 mg/kg bid po
[10] = Ex.5: Compound I 75 mg/kg bid po
[11] = Ex.5: Compound I 75 mg/kg bid po, animals of 10 per group
[12] = Ex.6: Compound I 25 mg/kg bid po
[13] = Ex.6: Compound I 25 mg/kg bid po, animals of 10 per group
[14] = Ex.4: Compound I 75 mg/kg bid po
[15] = Ex.4: erlotinib HCl 67 mg/kg qd po
[16] = Ex.4: erlotinib HCl 100 mg/kg qd po
[17] = Ex.6: irinotecan HCl 40 mg/kg q4d x5 ip

Q: Which “% ILS” value [1, 9] does the source give for `CCCS(=O)(=O)Nc1ccc(F)c(C(=O)c2c[nH]c3ncc(-c4ccc(Cl)cc4)cc23)c1F` [Compound I, propane-1-sulfonic acid {3-[5-(4-chloro-phenyl)-1H-pyrrolo[2,3-b]pyridine-3-carbonyl]-2,4-difluoro-phenyl}-amide] here?
A: The value was 44%.

Q: And the “% Inhibition end of study Day: 34” value [1, 9]?
A: The value was 74%.

Q: What about the “% T/C end of study Day: 34” value [1, 9] of the same compound?
A: The value was 26%.

Q: What about the “% Tumor Growth Inhibition” value [1, 9] of the same compound?
A: Its value is 74%.

Q: What about the “Mean Tumor Volume (mm^3) End Study” value [1, 9] of the same compound?
A: The value was 615.99 mm^3.

Q: What about the “50% Treatment Days” value [1, 9] of the same compound?
A: Its value is 46 days.

Q: What about the “% ILS” value [1, 10] of the same compound?
A: Its value is 75%.

Q: And the “% Inhibition end of study Day: 34” value [1, 10]?
A: The value was 93%.

Q: What about the “% T/C end of study Day: 34” value [1, 10] of the same compound?
A: Its value is 7%.

Q: What about the “% Tumor Growth Inhibition” value [1, 10] of the same compound?
A: Its value is 93%.

Q: What about the “Mean Tumor Volume (mm^3) End Study” value [1, 10] of the same compound?
A: The value was 275.66 mm^3.

Q: What about the “Complete Regression” value [1, 11] of the same compound?
A: Its value is 0.

Q: And the “Partial Regression” value [1, 11]?
A: Its value is 0.

Q: What about the “50% Treatment Days” value [1, 10] of the same compound?
A: The value was 56 days.

Q: And the “# animals ≧ 20% BWL” value [2, 12]?
A: Its value is 0.

Q: And the “% Change in Body Weight at end of Study Day 32” value [2, 12]?
A: Its value is 2.9%.

Q: And the “Max % Weight Gain” value [2, 12]?
A: Its value is 3.8%.

Q: What about the “Max % Weight Loss” value [2, 12] of the same compound?
A: The value was −0.6%.

Q: What about the Mortality [2, 12] of the same compound?
A: Its Mortality is 0.

Q: And the solubility in water [3]?
A: The solubility in water was “greater solubility in water”.

Q: What about the “Complete Regression” value [4, 13] of the same compound?
A: Its value is 0.

Q: What about the “Partial Regression” value [4, 13] of the same compound?
A: The value was 0.

Q: And the “tumor regression (partial or complete)” value [4]?
A: Its value is “no regressions”.

Q: And the “# animals ≧ 20% BWL” value [5, 9]?
A: Its value is 0.

Q: What about the “% Change in Body Weight at end of Study Day 34” value [5, 9] of the same compound?
A: Its value is 0.1%.

Q: What about the “Max % Weight Gain” value [5, 9] of the same compound?
A: The value was 0.3%.

Q: And the “Max % Weight Loss” value [5, 9]?
A: Its value is −2.2%.

Q: And the Mortality [5, 9]?
A: Its Mortality is 0.

Q: What about the “# animals ≧ 20% BWL” value [5, 10] of the same compound?
A: The value was 0.

Q: What about the “% Change in Body Weight at end of Study Day 34” value [5, 10] of the same compound?
A: The value was −0.1%.

Q: What about the “Max % Weight Gain” value [5, 10] of the same compound?
A: Its value is 0.7%.

Q: What about the “Max % Weight Loss” value [5, 10] of the same compound?
A: Its value is −1.4%.

Q: And the Mortality [5, 10]?
A: The Mortality was 0.

Q: And the “% ILS” value [6, 14]?
A: Its value is 100%.

Q: What about the “% Inhibition end of study Day: 29” value [6, 14] of the same compound?
A: Its value is 91%.

Q: And the “% T/C end of study Day: 29” value [6, 14]?
A: Its value is 9%.

Q: And the “% Tumor Growth Inhibition” value [6, 14]?
A: The value was 91%.

Q: And the “Mean Tumor Volume (mm^3) End Study” value [6, 14]?
A: The value was 270.24 mm^3.

Q: What about the “Complete Regression” value [6, 14] of the same compound?
A: The value was 0.

Q: What about the “Partial Regression” value [6, 14] of the same compound?
A: The value was 0.

Q: And the “50% Treatment Days” value [6, 14]?
A: Its value is 52 days.

Q: For `C#Cc1cccc(Nc2ncnc3cc(OCCOC)c(OCCOC)cc23)c1` [Erlotinib HCl, erlotinib hydrochloride], which “# animals ≧ 20% BWL” value [7, 15] is on record?
A: Its value is 0.

Q: What about the “% Change in Body Weight at end of Study Day 29” value [7, 15] of the same compound?
A: Its value is 3.1%.

Q: And the “Max % Weight Gain” value [7, 15]?
A: Its value is 3.1%.

Q: What about the “Max % Weight Loss” value [7, 15] of the same compound?
A: Its value is 0.1%.

Q: What about the Mortality [7, 15] of the same compound?
A: Its Mortality is 0.

Q: What about the “# animals ≧ 20% BWL” value [7, 16] of the same compound?
A: Its value is 0.

Q: What about the “% Change in Body Weight at end of Study Day 29” value [7, 16] of the same compound?
A: Its value is 2.9%.

Q: And the “Max % Weight Gain” value [7, 16]?
A: Its value is 3.0%.

Q: And the “Max % Weight Loss” value [7, 16]?
A: Its value is −1.6%.

Q: What about the Mortality [7, 16] of the same compound?
A: Its Mortality is 0.

Q: And the “EGFR inhibitor related skin rash” value ([7]; Ex.4: mice treated with erlotinib hydrochloride, self limiting under continuous treatment)?
A: The value was “skin rash was common”.

Q: And the “tolerability in combination (historical)” value [8]?
A: Its value is “not well tolerated”.

Q: And the “% ILS” value [6, 15]?
A: The value was 35%.

Q: And the “% Inhibition end of study Day: 29” value [6, 15]?
A: The value was 38%.

Q: And the “% T/C end of study Day: 29” value [6, 15]?
A: Its value is 62%.

Q: And the “% Tumor Growth Inhibition” value [6, 15]?
A: Its value is 38%.

Q: What about the “Mean Tumor Volume (mm^3) End Study” value [6, 15] of the same compound?
A: Its value is 1025.10 mm^3.

Q: What about the “Complete Regression” value [6, 15] of the same compound?
A: Its value is 0.

Q: What about the “Partial Regression” value [6, 15] of the same compound?
A: Its value is 0.

Q: And the “50% Treatment Days” value [6, 15]?
A: Its value is 35 days.

Q: What about the “% ILS” value [6, 16] of the same compound?
A: Its value is 38%.

Q: And the “% Inhibition end of study Day: 29” value [6, 16]?
A: The value was 51%.

Q: And the “% T/C end of study Day: 29” value [6, 16]?
A: Its value is 49%.

Q: And the “% Tumor Growth Inhibition” value [6, 16]?
A: The value was 51%.

Q: And the “Mean Tumor Volume (mm^3) End Study” value [6, 16]?
A: Its value is 838.75 mm^3.

Q: And the “Complete Regression” value [6, 16]?
A: Its value is 0.

Q: What about the “Partial Regression” value [6, 16] of the same compound?
A: The value was 0.

Q: What about the “50% Treatment Days” value [6, 16] of the same compound?
A: Its value is 36 days.

Q: With `CCc1c2c(nc3ccc(OC(=O)N4CCC(N5CCCCC5)CC4)cc13)-c1cc3c(c(=O)n1C2)COC(=O)[C@]3(O)CC` [Irinotecan HCl, irinotecan hydrochloride, reference compound] as the compound, how does the “# animals ≧ 20% BWL” value [2, 17] read?
A: The value was 0.

Q: And the “% Change in Body Weight at end of Study Day 32” value [2, 17]?
A: Its value is 2.7%.

Q: And the “Max % Weight Gain” value [2, 17]?
A: The value was 2.8%.

Q: What about the “Max % Weight Loss” value [2, 17] of the same compound?
A: Its value is 0.1%.

Q: And the Mortality [2, 17]?
A: Its Mortality is 0.

Q: What about the “tumor regression (partial or complete)” value [4] of the same compound?
A: The value was “no regressions”.

Q: What about the “% ILS” value [4, 17] of the same compound?
A: The value was 17%.
